Laboratory results as given in PMC6411751, “Use of machine learning to identify novel, behaviorally active antagonists of the insect odorant receptor co-receptor (Orco) subunit” (Scientific Reports, 2019).
Counter-ions that a name gives are not always drawn.

Columns and labels:
Type in all cases: cell-based
Agam\Or65 + Agam\Orco = biological target: T1, Agam\Or65 + Agam\Orco (Anopheles gambiae, UniProt Q7QCC7); assay: Inhibition of heteromeric OR in oocytes (eugenol activation); conditions: 100 µM antagonist; 100 nM eugenol
T1 construct: expressed in transfected cells; host or cells: Xenopus laevis oocytes
T1 sequence (Q7QCC7 1-478): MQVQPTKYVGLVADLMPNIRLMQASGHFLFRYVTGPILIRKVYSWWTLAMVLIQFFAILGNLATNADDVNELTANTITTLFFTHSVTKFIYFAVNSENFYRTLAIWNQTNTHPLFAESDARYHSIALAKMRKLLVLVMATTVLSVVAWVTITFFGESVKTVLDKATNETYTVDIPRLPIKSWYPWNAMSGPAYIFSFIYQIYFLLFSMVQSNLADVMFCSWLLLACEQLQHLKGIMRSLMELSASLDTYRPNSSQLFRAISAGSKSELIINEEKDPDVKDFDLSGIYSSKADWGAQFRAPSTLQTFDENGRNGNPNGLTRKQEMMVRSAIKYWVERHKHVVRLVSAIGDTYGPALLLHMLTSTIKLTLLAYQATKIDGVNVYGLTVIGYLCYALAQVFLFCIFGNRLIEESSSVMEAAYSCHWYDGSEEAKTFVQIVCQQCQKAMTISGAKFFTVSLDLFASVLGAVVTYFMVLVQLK
Description: (§1) An automated parallel electrophysiology system (OpusExpress 6000 A, Molecular Devices) was used to record Orco agonist (OLC12) or odorant induced currents under two-electrode voltage clamp. Oocytes were perfused with ND96 (in mM: 96 NaCl, 2 KCl, 1 CaCl2, 1 MgCl2, 5 HEPES, pH 7.4). DMSO was used to prepare 1 M or 100 mM stock solutions of test compounds, which were then diluted in ND96 on the day of the experiment. Compounds were applied at a flow rate of 1.0 mL/min, with extensive washing in ND96 at 4.6 mL/min between applications. Micropipettes with resistances of 0.2–2.0 MΩ were filled with 3 M KCl. The holding potential was −70 mV. Current responses were filtered (4-pole, Bessel, low pass) at 20 Hz (−3 db) and sampled at 100 Hz. OpusXpress 1.1 software (Molecular Devices) was used to capture and store current responses.
(§2) To measure the ability of Orco antagonists to inhibit odorant activation, oocytes expressing heteromeric ORs (Orco + ORX) were exposed to a 30 sec application of odorant followed by a 20 min wash. Oocytes were then exposed to a 90 sec application of Orco antagonist, immediately followed by a 30 sec co-application of Orco antagonist and odorant. The current response to odorant in the presence of Orco antagonist was compared to the preceding response to odorant alone and represented as a percentage. This value was then normalized to the value obtained when the assay was run in the absence of antagonist (sham).
(§3) Figure S3. Effects of Orco antagonists on heteromeric ORs. […]
heteromeric complexes of odorant specificity subunits and Orco. The Orco antagonists tested were 3-isopropyl-6-methyl-catechol (3 I6 MC), a potent compound from the input training set, and two compounds id e ntified in Fig u re 4 an d Ta b le 1 : 2-tert-butyl-6-methylphenol (B MP ) and linalyl formate (LF) . […]
SEM (n = 4). […] Statistical significance of the data in each panel was assessed by one-way analysis of variance followed by Dunnett’s […]

Agam\Or28 + Agam\Orco = biological target: T2, Agam\Or28 + Agam\Orco (Anopheles gambiae, UniProt Q7QCC7); assay: Inhibition of heteromeric OR in oocytes (acetophenone activation); conditions: for inhibition of odorant activation: 100 µM antagonist, 40 µM acetophenone
T2 construct: expressed in transfected cells; host or cells: Xenopus laevis oocytes
T2 sequence (Q7QCC7 1-478): T1 sequence (Q7QCC7 1-478)
Description: as §1

Dmel\Or35a + Dmel\Orco = biological target: T3, Dmel\Or35a + Dmel\Orco (Drosophila melanogaster, UniProt Q9VNB5); assay: Inhibition of heteromeric OR in oocytes (hexanol or OLC12 activation); conditions: for inhibition of odorant activation: 100 µM antagonist, 1 µM hexanol; for antagonism of OLC12 (Orco agonist) activation of heteromeric OR: 100 or 300 µM antagonist, 10 µM OLC12
T3 construct: expressed in transfected cells; host or cells: Xenopus laevis oocytes
T3 sequence (Q9VNB5 1-486): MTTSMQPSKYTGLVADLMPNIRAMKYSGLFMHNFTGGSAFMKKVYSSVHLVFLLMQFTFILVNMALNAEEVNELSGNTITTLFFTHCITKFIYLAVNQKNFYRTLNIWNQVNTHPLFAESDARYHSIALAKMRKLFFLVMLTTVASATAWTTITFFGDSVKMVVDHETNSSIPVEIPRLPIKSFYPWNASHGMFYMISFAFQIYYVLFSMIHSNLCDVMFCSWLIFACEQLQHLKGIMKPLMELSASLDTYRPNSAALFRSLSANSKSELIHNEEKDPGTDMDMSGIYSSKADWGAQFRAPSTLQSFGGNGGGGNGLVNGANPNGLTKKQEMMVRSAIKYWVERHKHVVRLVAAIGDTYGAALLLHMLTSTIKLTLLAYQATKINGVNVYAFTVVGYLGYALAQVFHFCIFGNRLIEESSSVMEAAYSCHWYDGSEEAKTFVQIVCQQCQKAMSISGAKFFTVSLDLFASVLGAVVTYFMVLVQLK
T3 sequence (Q9V3Q2 1-409 partner): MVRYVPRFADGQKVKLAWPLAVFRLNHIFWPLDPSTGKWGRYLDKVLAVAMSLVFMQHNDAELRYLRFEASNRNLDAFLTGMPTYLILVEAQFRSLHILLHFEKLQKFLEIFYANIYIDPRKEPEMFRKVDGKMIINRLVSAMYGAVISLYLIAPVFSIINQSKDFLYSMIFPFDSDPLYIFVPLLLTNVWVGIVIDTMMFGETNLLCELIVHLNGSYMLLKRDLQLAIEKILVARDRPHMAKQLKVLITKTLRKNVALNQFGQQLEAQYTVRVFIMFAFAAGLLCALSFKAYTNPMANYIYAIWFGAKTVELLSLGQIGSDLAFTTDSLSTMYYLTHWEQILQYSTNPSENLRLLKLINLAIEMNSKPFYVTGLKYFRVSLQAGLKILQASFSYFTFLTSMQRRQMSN
Description: as §1, §2, §3
heteromeric complexes of odorant specificity subunits and Orco. The Orco antagonists tested were 3-isopropyl-6-methyl-catechol (3 I6 MC), a potent compound from the input training set, and two compounds id e ntified in Fig u re 4 an d Ta b le 1 : 2-tert-butyl-6-methylphenol (B MP ) and linalyl formate (LF) . These compounds were tested for antagonist activity against odorant activation of three ORs from Anopheles gambiae (Agam\Or28 + Agam\Orco, Agam\Or39 + A ga m\Orco, Agam\Or65 + A ga m\Orco), o ne O R fro m Culex quinquefasciatus, the southern house mosquito (Cq u i\Or21 + Cqui\Orco) an d on e O R f ro m Drosophila melanogaster (Dme l\Or35a + Dmel\Orco). Each OR was activated by its cognate odorant agonist applied at an approximate EC50 concentration. […]
SEM (n = 4). […] Statistical significance of the data in each panel was assessed by one-way analysis of variance followed by Dunnett’s multiple comparison test using the pre-normalized values for each antagonist compared to the values obtained in the sham recordings (*, p < 0 .0 5; **, p < 0. 01; ***, p < 0 . 00 1 ).

Row | Compound | inhibition of odorant activation (Agam\Or65 + Agam\Orco) | inhibition of odorant activation (Agam\Or28 + Agam\Orco) | inhibition of odorant activation (Dmel\Or35a + Dmel\Orco) | antagonism of OLC12 (Orco agonist) activation of heteromeric OR (Dmel\Or35a + Dmel\Orco) | IC50 (Agam\Or28 + Agam\Orco; 100 µM acetophenone, n = 4-8, read-out: IC50 for inhibition of Agam\Or28 + Agam\Orco activation by 100 µM ACE) [µM] | mechanism of inhibition of odorant responses (Agam\Or28 + Agam\Orco; 10 vs 100 µM acetophenone fails to shift inhibition curve)
1 | C=CC(C)(CCC=C(C)C)OC=O (centres unmarked) [LF, linalyl formate] | able to inhibit odorant activation | able to inhibit odorant activation | able to inhibit odorant activation | able to antagonize OLC12 | – | –
2 | Cc1cccc(C(C)(C)C)c1O [BMP, 2-tert-butyl-6-methylphenol] | able to inhibit odorant activation | able to inhibit odorant activation | able to inhibit odorant activation | able to antagonize OLC12 | 53 ± 9 | non-competitive
3 | Cc1ccc(C(C)C)c(O)c1O [3I6MC, 3-isopropyl-6-methyl catechol] | could inhibit odorant activation | could inhibit odorant activation | could inhibit odorant activation | could antagonize OLC12 | – | –
